Results from ChEMBL document CHEMBL4507303, “Data for DCP probe TP-004” (2021).

Experiments:
[1] = biological target: Serine/threonine-protein kinase 36 (Homo sapiens) (UniProt Q9NRP7); settings: Compound concentration 1000.0 nM
[2] = biological target: Membrane-associated tyrosine- and threonine-specific cdc2-inhibitory kinase (Homo sapiens) (UniProt Q99640); settings: Compound concentration 1000.0 nM
[3] = biological target: Interleukin-1 receptor-associated kinase 3 (Homo sapiens) (UniProt Q9Y616); settings: Compound concentration 1000.0 nM
[4] = biological target: Serine/threonine-protein kinase SIK2 (Homo sapiens) (UniProt Q9H0K1); settings: Compound concentration 1000.0 nM
[5] = biological target: D(4) dopamine receptor (Homo sapiens) (UniProt P21917); settings: Compound concentration 10.0 uM
[6] = biological target: Rho-associated protein kinase 1 (Homo sapiens) (UniProt Q13464); settings: Compound concentration 1000.0 nM
[7] = test system: Receptor-type tyrosine-protein kinase FLT3 (Homo sapiens), P36888 [UNDEFINED MUTATION]; settings: Compound concentration 1000.0 nM
[8] = biological target: Mitogen-activated protein kinase kinase kinase kinase 4 (Homo sapiens) (UniProt O95819); settings: Compound concentration 1000.0 nM
[9] = biological target: Tyrosine-protein kinase FRK (Homo sapiens) (UniProt P42685); settings: Compound concentration 1000.0 nM
[10] = biological target: Serine/threonine-protein kinase DCLK2 (Homo sapiens) (UniProt Q8N568); settings: Compound concentration 1000.0 nM
[11] = test system: Epidermal growth factor receptor (Homo sapiens), P00533 [UNDEFINED MUTATION]; settings: Compound concentration 1000.0 nM
[12] = biological target: Dual specificity protein kinase TTK (Homo sapiens) (UniProt P33981); settings: Compound concentration 1000.0 nM
[13] = biological target: Cyclin-dependent kinase 5 (Homo sapiens) (UniProt Q00535); settings: Compound concentration 1000.0 nM
[14] = biological target: Glycogen synthase kinase-3 alpha (Homo sapiens) (UniProt P49840); settings: Compound concentration 1000.0 nM
[15] = biological target: Serine/threonine-protein kinase TAO3 (Homo sapiens) (UniProt Q9H2K8); settings: Compound concentration 1000.0 nM
[16] = biological target: Beta-adrenergic receptor kinase 1 (Homo sapiens) (UniProt P25098); settings: Compound concentration 1000.0 nM
[17] = test system: Tyrosine-protein kinase ABL1 (Homo sapiens), P00519 [T315I]; settings: Compound concentration 1000.0 nM
[18] = biological target: Inhibitor of nuclear factor kappa-B kinase subunit beta (Homo sapiens) (UniProt O14920); settings: Compound concentration 1000.0 nM
[19] = biological target: Mitogen-activated protein kinase kinase kinase 4 (Homo sapiens) (UniProt Q9Y6R4); settings: Compound concentration 1000.0 nM
[20] = biological target: Eukaryotic translation initiation factor 2-alpha kinase 1 (Homo sapiens) (UniProt Q9BQI3); settings: Compound concentration 1000.0 nM
[21] = biological target: Serine/threonine-protein kinase 17B (Homo sapiens) (UniProt O94768); settings: Compound concentration 1000.0 nM
[22] = biological target: Mitogen-activated protein kinase kinase kinase kinase 3 (Homo sapiens) (UniProt Q8IVH8); settings: Compound concentration 1000.0 nM
[23] = biological target: Casein kinase I isoform delta (Homo sapiens) (UniProt P48730); settings: Compound concentration 1000.0 nM
[24] = biological target: TRAF2 and NCK-interacting protein kinase (Homo sapiens) (UniProt Q9UKE5); settings: Compound concentration 1000.0 nM
[25] = test system: Serine/threonine-protein kinase B-raf (Homo sapiens), P15056 [V600E]; settings: Compound concentration 1000.0 nM
[26] = biological target: Serine/threonine-protein kinase PAK 6 (Homo sapiens) (UniProt Q9NQU5); settings: Compound concentration 1000.0 nM
[27] = biological target: Tyrosine-protein kinase receptor UFO (Homo sapiens) (UniProt P30530); settings: Compound concentration 1000.0 nM
[28] = biological target: Serine/threonine-protein kinase Sgk1 (Homo sapiens) (UniProt O00141); settings: Compound concentration 1000.0 nM
[29] = biological target: Homeodomain-interacting protein kinase 2 (Homo sapiens) (UniProt Q9H2X6); settings: Compound concentration 1000.0 nM
[30] = biological target: RAF proto-oncogene serine/threonine-protein kinase (Homo sapiens) (UniProt P04049); settings: Compound concentration 1000.0 nM
[31] = biological target: Tyrosine-protein kinase Tec (Homo sapiens) (UniProt P42680); settings: Compound concentration 1000.0 nM
[32] = biological target: Interferon-induced, double-stranded RNA-activated protein kinase (Homo sapiens) (UniProt P19525); settings: Compound concentration 1000.0 nM
[33] = biological target: Mitogen-activated protein kinase 3 (Homo sapiens) (UniProt P27361); settings: Compound concentration 1000.0 nM
[34] = biological target: Histamine H4 receptor (Homo sapiens) (UniProt Q9H3N8); settings: Compound concentration 10.0 uM
[35] = biological target: Tyrosine-protein kinase receptor TYRO3 (Homo sapiens) (UniProt Q06418); settings: Compound concentration 1000.0 nM
[36] = biological target: 5-hydroxytryptamine receptor 2C (Homo sapiens) (UniProt P28335); settings: Compound concentration 10.0 uM
[37] = biological target: Vascular endothelial growth factor receptor 3 (Homo sapiens) (UniProt P35916); settings: Compound concentration 1000.0 nM
[38] = biological target: Muscle, skeletal receptor tyrosine-protein kinase (Homo sapiens) (UniProt O15146); settings: Compound concentration 1000.0 nM
[39] = biological target: Casein kinase I isoform alpha-like (Homo sapiens) (UniProt Q8N752); settings: Compound concentration 1000.0 nM
[40] = biological target: Microtubule-associated serine/threonine-protein kinase 1 (Homo sapiens) (UniProt Q9Y2H9); settings: Compound concentration 1000.0 nM
[41] = biological target: MAP kinase-interacting serine/threonine-protein kinase 2 (Homo sapiens) (UniProt Q9HBH9); settings: Compound concentration 1000.0 nM
[42] = biological target: Phosphatidylinositol 3-kinase catalytic subunit type 3 (Homo sapiens) (UniProt Q8NEB9); settings: Compound concentration 1000.0 nM
[43] = biological target: Mitotic checkpoint serine/threonine-protein kinase BUB1 (Homo sapiens) (UniProt O43683); settings: Compound concentration 1000.0 nM
[44] = biological target: Ephrin type-A receptor 5 (Homo sapiens) (UniProt P54756); settings: Compound concentration 1000.0 nM

Chain of Tyrosine-protein kinase FRK (Homo sapiens) (P42685 whole entry): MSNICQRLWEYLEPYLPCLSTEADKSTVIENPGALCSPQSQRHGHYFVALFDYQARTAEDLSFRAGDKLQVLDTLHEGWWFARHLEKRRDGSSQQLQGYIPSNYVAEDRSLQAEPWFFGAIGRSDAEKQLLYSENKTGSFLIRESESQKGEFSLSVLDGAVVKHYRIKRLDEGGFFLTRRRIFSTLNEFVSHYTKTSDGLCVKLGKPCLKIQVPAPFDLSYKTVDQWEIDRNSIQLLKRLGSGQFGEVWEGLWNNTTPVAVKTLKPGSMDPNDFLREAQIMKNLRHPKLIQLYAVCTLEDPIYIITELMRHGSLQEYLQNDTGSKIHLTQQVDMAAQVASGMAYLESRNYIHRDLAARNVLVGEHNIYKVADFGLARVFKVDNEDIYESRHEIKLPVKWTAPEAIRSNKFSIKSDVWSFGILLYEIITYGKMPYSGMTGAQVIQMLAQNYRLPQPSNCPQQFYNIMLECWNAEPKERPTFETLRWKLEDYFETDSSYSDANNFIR
Chain of Eukaryotic translation initiation factor 2-alpha kinase 1 (Homo sapiens) (Q9BQI3 whole entry): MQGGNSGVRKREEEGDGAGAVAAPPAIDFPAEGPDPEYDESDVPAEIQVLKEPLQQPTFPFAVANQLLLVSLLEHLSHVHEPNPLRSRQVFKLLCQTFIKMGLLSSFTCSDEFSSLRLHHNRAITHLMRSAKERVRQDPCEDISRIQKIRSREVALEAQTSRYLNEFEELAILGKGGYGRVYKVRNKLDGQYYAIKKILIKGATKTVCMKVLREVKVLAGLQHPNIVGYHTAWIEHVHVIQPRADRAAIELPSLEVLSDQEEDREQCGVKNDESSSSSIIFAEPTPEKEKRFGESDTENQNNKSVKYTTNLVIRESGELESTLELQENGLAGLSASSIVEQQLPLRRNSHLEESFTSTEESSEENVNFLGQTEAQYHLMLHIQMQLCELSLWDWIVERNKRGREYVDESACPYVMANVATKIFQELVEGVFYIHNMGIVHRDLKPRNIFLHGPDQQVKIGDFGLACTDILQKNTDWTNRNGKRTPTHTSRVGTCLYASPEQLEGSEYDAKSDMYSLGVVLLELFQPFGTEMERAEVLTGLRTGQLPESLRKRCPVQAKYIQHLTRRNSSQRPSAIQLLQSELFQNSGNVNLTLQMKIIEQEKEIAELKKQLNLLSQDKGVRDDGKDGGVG
Chain of Phosphatidylinositol 3-kinase catalytic subunit type 3 (Homo sapiens) (Q8NEB9 whole entry): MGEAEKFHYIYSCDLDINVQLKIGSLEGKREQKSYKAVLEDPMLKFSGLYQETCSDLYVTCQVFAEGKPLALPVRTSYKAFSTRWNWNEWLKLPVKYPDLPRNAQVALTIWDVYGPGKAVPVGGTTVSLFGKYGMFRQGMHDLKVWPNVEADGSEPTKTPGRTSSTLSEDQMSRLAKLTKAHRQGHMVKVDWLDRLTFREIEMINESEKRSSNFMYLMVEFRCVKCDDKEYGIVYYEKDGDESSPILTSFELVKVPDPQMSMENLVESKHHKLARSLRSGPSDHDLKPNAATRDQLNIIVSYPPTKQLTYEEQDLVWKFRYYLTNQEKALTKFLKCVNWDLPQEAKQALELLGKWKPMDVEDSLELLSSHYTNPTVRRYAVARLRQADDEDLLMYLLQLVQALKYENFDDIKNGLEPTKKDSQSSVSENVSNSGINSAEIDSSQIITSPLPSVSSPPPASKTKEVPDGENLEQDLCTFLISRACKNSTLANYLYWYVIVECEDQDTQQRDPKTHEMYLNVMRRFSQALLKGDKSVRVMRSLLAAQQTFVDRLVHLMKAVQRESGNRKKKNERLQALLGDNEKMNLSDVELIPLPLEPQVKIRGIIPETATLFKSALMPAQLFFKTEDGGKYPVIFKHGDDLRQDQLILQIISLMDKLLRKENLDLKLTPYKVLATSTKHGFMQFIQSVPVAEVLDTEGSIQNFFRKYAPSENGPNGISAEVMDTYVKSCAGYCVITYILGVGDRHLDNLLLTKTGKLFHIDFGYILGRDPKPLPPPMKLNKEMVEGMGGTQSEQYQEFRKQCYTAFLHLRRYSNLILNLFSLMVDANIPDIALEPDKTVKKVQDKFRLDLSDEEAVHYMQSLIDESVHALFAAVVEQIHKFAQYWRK
Chain of Serine/threonine-protein kinase 17B (Homo sapiens) (O94768 whole entry): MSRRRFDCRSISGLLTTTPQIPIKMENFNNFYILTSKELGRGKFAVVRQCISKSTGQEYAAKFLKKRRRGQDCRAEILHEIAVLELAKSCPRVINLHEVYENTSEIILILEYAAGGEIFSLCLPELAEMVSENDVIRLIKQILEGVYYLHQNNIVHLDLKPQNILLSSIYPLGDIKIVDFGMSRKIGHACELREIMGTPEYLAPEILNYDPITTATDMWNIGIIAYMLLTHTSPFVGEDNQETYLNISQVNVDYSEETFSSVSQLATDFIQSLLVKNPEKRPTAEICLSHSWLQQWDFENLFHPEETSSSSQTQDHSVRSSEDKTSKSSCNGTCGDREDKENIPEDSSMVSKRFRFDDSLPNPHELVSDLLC
Chain of Mitotic checkpoint serine/threonine-protein kinase BUB1 (Homo sapiens) (O43683 whole entry, looked up): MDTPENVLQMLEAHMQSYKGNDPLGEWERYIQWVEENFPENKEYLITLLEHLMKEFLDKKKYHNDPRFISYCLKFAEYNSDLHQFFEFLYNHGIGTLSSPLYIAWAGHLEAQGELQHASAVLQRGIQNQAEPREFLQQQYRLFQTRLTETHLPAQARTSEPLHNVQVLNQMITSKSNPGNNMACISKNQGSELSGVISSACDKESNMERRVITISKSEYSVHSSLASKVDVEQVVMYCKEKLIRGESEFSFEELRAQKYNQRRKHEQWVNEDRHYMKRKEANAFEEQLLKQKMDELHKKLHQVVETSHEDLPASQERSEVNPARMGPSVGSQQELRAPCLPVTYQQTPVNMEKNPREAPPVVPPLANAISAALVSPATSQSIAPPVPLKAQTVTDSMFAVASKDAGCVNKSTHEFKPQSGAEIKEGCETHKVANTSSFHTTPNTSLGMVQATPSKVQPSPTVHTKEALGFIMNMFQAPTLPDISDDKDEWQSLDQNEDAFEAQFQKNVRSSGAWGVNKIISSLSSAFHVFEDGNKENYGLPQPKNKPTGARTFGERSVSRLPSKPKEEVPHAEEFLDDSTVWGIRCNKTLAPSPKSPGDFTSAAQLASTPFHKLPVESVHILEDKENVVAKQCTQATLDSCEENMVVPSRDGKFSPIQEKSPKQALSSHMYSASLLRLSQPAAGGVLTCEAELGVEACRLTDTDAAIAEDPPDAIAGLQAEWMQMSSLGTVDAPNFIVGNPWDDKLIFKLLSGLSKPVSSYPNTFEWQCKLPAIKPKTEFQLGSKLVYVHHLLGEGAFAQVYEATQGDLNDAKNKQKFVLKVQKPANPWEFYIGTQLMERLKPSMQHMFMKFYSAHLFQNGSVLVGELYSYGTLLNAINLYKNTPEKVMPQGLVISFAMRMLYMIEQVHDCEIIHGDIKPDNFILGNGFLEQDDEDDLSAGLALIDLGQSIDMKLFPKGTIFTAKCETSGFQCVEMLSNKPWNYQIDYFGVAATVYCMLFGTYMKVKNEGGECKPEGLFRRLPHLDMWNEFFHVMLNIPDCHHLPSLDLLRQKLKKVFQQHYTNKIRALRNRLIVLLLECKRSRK
Chain of Glycogen synthase kinase-3 alpha (Homo sapiens) (P49840 2-483 limits assumed): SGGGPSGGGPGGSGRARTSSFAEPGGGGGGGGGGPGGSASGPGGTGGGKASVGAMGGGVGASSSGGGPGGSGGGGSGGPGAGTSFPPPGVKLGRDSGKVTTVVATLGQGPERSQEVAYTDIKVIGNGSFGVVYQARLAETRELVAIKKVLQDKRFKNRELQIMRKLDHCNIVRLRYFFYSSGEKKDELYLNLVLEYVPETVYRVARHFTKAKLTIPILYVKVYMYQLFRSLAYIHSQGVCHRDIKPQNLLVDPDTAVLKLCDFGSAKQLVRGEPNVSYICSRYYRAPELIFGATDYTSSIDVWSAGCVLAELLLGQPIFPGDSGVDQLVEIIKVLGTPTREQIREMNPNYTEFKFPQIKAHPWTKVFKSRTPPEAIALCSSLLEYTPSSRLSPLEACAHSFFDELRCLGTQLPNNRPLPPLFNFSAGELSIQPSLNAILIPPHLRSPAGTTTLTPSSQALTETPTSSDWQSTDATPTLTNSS
Chain of Mitogen-activated protein kinase kinase kinase kinase 3 (Homo sapiens) (Q8IVH8 whole entry, canonical isoform): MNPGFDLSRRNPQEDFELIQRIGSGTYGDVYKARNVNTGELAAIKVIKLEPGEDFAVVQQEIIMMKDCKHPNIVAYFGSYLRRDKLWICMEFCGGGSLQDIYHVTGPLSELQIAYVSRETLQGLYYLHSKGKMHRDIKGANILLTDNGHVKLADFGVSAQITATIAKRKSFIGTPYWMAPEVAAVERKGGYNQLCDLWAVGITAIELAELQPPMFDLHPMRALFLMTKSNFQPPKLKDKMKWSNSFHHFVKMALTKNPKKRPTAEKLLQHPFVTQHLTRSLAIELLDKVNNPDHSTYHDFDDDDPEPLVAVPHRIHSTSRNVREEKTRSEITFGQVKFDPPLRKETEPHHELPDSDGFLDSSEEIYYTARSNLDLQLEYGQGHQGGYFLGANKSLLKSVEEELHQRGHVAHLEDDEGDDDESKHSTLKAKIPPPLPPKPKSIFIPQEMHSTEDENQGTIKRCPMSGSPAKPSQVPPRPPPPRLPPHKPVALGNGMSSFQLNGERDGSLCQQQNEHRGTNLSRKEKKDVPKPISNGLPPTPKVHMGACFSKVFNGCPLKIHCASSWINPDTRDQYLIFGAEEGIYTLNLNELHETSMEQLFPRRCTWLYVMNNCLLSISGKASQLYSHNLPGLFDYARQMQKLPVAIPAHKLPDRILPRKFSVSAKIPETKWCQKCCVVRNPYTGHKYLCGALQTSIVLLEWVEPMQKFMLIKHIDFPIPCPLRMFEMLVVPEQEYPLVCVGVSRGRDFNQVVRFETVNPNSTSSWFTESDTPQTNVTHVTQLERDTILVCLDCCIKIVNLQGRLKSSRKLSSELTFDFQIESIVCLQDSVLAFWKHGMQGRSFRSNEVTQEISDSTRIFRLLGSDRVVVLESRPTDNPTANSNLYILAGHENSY

Cc1nc(N2CC[C@@H](O)C2)ncc1-c1cc(C(F)(F)F)cc2[nH]ncc12 [TP-004]
active: residual activity [16] 42% | residual activity [28] 49%
inactive: residual activity [1] 100% | residual activity [2] 100% | residual activity [3] 85% | residual activity [4] 100% | inhibition [5] 7.69% | residual activity [6] 91% | residual activity [7] 54% | residual activity [8] 82% | residual activity [9] 98% | residual activity [10] 100% | residual activity [11] 100% | residual activity [12] 100% | residual activity [13] 99% | residual activity [14] 54% | residual activity [15] 82% | residual activity [17] 78% | residual activity [18] 77% | residual activity [19] 100% | residual activity [20] 98% | residual activity [21] 99% | residual activity [22] 100% | residual activity [23] 95% | residual activity [24] 100% | residual activity [25] 77% | residual activity [26] 100% | residual activity [27] 80% | residual activity [29] 74% | residual activity [30] 100% | residual activity [31] 84% | residual activity [32] 100% | residual activity [33] 100% | inhibition [34] 12% | residual activity [35] 66% | inhibition [36] -0.722% | residual activity [37] 100% | residual activity [38] 85% | residual activity [39] 93% | residual activity [40] 100% | residual activity [41] 76% | residual activity [42] 63% | residual activity [43] 75% | residual activity [44] 100%
